Structures are written as SMILES.

The target of experiment [1] is T1, haem-free recombinant soluble guanylate cyclase (sGC) (Rattus norvegicus, UniProt P20595).
T1 construct: made in house; host or cells: Sf9 insect cells (baculovirus)
T1 sequence (P20595 1-619): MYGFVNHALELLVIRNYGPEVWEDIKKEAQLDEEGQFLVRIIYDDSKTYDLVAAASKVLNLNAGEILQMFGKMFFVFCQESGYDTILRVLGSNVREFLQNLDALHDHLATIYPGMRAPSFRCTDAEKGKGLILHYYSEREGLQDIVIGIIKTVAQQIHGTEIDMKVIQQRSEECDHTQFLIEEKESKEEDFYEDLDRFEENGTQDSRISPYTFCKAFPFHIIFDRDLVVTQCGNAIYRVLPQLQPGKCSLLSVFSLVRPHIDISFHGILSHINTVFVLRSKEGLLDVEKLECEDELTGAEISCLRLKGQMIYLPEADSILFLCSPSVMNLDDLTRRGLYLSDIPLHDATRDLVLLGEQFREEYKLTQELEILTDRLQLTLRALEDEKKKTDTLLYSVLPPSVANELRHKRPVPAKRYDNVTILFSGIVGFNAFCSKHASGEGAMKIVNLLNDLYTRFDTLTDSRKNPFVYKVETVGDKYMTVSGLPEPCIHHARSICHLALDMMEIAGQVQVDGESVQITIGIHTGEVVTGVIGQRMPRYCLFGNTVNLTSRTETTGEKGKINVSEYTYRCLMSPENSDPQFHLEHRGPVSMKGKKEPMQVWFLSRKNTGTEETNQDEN
T1 sequence (P19686 1-690 partner): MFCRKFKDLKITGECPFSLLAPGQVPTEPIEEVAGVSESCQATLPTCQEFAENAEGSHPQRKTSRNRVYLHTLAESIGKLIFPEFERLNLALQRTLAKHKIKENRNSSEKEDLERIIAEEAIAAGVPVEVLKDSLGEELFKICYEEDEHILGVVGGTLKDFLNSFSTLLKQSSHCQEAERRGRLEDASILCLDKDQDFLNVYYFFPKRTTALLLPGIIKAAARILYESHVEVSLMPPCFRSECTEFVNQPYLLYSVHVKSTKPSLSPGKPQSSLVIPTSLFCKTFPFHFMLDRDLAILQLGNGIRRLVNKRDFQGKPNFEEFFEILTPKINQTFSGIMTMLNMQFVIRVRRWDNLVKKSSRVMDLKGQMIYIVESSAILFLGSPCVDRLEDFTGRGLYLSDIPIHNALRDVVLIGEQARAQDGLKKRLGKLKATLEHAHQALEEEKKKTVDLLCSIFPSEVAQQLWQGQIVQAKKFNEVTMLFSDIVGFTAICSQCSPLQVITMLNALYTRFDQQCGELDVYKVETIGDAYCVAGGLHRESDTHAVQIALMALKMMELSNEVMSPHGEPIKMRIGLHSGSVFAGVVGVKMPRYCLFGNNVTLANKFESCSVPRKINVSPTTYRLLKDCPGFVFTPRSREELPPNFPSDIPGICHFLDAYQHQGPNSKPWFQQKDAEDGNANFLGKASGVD
Put plainly: Stimulation of recombinant soluble guanylate cyclase (sGC) in vitro, haem-free enzyme. Type of experiment: biochemical. How it is done: (§1) Investigations on the stimulation of recombinant soluble guanylate cyclase (sGC) by the compounds according to the invention with and without sodium nitroprusside, and with and without the haem-dependent sGC inhibitor 1H-1,2,4-oxadiazolo-(4,3a)-quinoxalin-1-one (ODQ) are carried out by the method described in detail in the following reference: M. Hoenicka, E. M. Becker, H. Apeler, T. Sirichoke, H. Schroeder, R. Gerzer and J.-P. Stasch, “Purified soluble guanylyl cyclase expressed in a baculovirus/Sf9 system: Stimulation by YC-1, nitric oxide, and […]”, J. Mol. Med. 77 (1999), 14-23. The haem-free guanylate cyclase is obtained by adding Tween 20 to the sample buffer (0.5% in the final concentration).
(§2) The activation of sGC by a test substance is reported as x-fold stimulation of the basal activity.

Experiment [2] has as its target T2, haem-containing recombinant soluble guanylate cyclase (sGC) (Rattus norvegicus, UniProt P20595).
T2 construct: made in house; host or cells: Sf9 insect cells (baculovirus)
T2 sequence (P20595 1-619): T1 sequence (P20595 1-619)
T2 sequence (P19686 1-690 partner): T1 sequence (P19686 1-690 partner)
Kind of experiment: Stimulation of recombinant soluble guanylate cyclase (sGC) in vitro, haem-containing enzyme. The conditions noted are these: for Effect of combination with the NO donor DEA/NO on sGC stimulation: haem-containing sGC. It is filed as biochemical. The method, then:
as §1, §2

The subject of experiment [3] is recombinant guanylate cyclase reporter cell line. Kind of experiment: Action at recombinant guanylate cyclase reporter cell line (CHO reporter cell). It is filed as cell-based. The following applies: MEC = minimal effective concentration; read-out: sGC-activating activity in the CHO reporter cell in vitro, MEC. How it is done:
The cellular action of the compounds according to the invention is determined at a recombinant guanylate cyclase reporter cell line, as described in F. Wunder et al., Anal. Biochem. 339, 104-112 (2005).

In experiment [4] the target is T3, soluble guanylate cyclase (sGC) (Rattus norvegicus, UniProt P20595).
T3 construct: made in house; host or cells: Sf9 insect cells (baculovirus)
T3 sequence (P20595 1-619): T1 sequence (P20595 1-619)
T3 sequence (P19686 1-690 partner): T1 sequence (P19686 1-690 partner)
Kind of experiment: Stimulation of sGC enzyme activity (PPi detection, luciferase luminescence). Type of experiment: biochemical. The following applies: for EC50: EC50 = concentration at 50% of maximum efficacy, read-out: Activating action at the sGC enzyme in vitro, EC50; for Activating action at the sGC enzyme in vitro, MEC: MEC = minimal effective concentration. How it is done: Soluble guanylate cyclase (sGC) converts on stimulation GTP into cGMP and pyrophosphate (PPi). PPi is detected with the aid of the assay described below. The signal produced in the assay increases as the reaction progresses and serves as a measure of the sGC enzyme activity under the given stimulation.
To carry out the assay, 29 μl of enzyme solution [0-10 nM soluble guanylate cyclase (prepared according to Hönicka et al., J. Mol. Med. 77, 14-23 (1999)) in 50 mM TEA, 2 mM MgCl2, 0.1% BSA (fraction V), 0.005% Brij®, pH 7.5] are initially introduced into a microplate, and 1 μl of the substance to be tested (as a serially diluted solution in DMSO) is added. The mixture is incubated at room temperature for 10 min. Then 20 μl of detection mix [1.2 nM Firefly Luciferase (Photinus pyralis luciferase, Promega), 29 μM dehydroluciferin (prepared according to Bitler & McElroy, Arch. Biochem. Biophys. 72, 358 (1957)), 122 μM luciferin (Promega), 153 μM ATP (Sigma) and 0.4 mM DTT (Sigma) in 50 mM TEA, 2 mM MgCl2, 0.1% BSA (fraction V), 0.005% Brij®, pH 7.5] are added. The enzyme reaction is started by adding 20 μl of substrate solution [1.25 mM guanosine 5′-triphosphate (Sigma) in 50 mM TEA, 2 mM MgCl2, 0.1% BSA (fraction V), 0.005% Brij®, pH 7.5] and measured continuously in a luminometer. The extent of the stimulation by the substance to be tested can be determined relative to the signal of the unstimulated reaction.
The activation of haem-free guanylate cyclase is examined by addition of 25 μM of 1H-1,2,4-oxadiazolo[4,3-a]quinoxalin-1-one (ODQ) to the enzyme solution and subsequent incubation for 30 minutes, and compared to the stimulation of the native enzyme.

Turning to `C[C@H]([C@H](C(=O)Nc1cc(CCC(=O)O)ccc1Cl)c1ccc(Cl)cc1)C(F)(F)F` [Example 15, (+)-3-(4-Chloro-3-{[(2S,3R)-2-(4-chlorophenyl)-4,4,4-trifluoro-3-methylbutanoyl]amino}phenyl)-propanoic acid], the “Stimulation (x-fold) of recombinant sGC, haem-free sGC, basal” value stood at 1.7 ± 0.3 x-fold in experiment [1] (0.01 μM test compound); 1.8 ± 0.2 x-fold in experiment [1] (0.1 μM test compound); 3.0 ± 0.5 x-fold in experiment [1] (1.0 μM test compound); 17.9 ± 3.1 x-fold in experiment [1] (10 μM test compound); 40.3 ± 6.6 x-fold in experiment [1] (100 μM test compound). In addition, the “Stimulation (x-fold) of recombinant sGC, haem-containing sGC, +0.01 μM DEA/NO” value is listed as 5.9 ± 0.7 x-fold in experiment [2] (0.01 μM test compound); 7.4 ± 0.8 x-fold in experiment [2] (0.1 μM test compound); 8.5 ± 0.7 x-fold in experiment [2] (1.0 μM test compound); 11.5 ± 0.9 x-fold in experiment [2] (10 μM test compound); 45.9 ± 3.1 x-fold in experiment [2] (100 μM test compound). Besides, the “Stimulation (x-fold) of recombinant sGC, haem-containing sGC, +10 μM ODQ” value stood at 4.6 ± 0.8 x-fold in experiment [2] (0.01 μM test compound); 4.5 ± 0.6 x-fold in experiment [2] (0.1 μM test compound); 4.8 ± 0.8 x-fold in experiment [2] (1.0 μM test compound); 16.3 ± 1.3 x-fold in experiment [2] (10 μM test compound); 97.3 ± 7.7 x-fold in experiment [2] (100 μM test compound). The “Stimulation (x-fold) of recombinant sGC, haem-containing sGC, basal” value turned out to be 1.1 ± 0.1 x-fold in experiment [2] (0.01 μM test compound); 1.0 ± 0.1 x-fold in experiment [2] (0.1 μM test compound); 0.9 ± 0.1 x-fold in experiment [2] (1.0 μM test compound); 3.1 ± 0.3 x-fold in experiment [2] (10 μM test compound); 31.6 ± 2.6 x-fold in experiment [2] (100 μM test compound). Besides, the “Effect of combination with the NO donor DEA/NO on sGC stimulation” value in experiment [2] was “no synergistic effect”. The minimal effective concentration in experiment [3] stood at 0.01 µM. Moreover, in experiment [4], the EC50 was determined as 290 nM. Also, the “Activating action at the sGC enzyme in vitro, MEC” value in experiment [4] was 10 nM.
Regarding `C[C@H]([C@H](C(=O)Nc1cc(C[C@H](C)C(=O)O)ccc1Cl)c1ccc(Cl)cc1)C(F)(F)F` [Example 17, (+)-(2S)-3-(4-Chloro-3-{[(2S,3R)-2-(4-chlorophenyl)-4,4,4-trifluoro-3-methylbutanoyl]amino}-phenyl)-2-methylpropanoic acid], the “Stimulation (x-fold) of recombinant sGC, haem-free sGC, basal” value was 1.7 ± 0.2 x-fold in experiment [1] (0.01 μM test compound); 2.0 ± 0.3 x-fold in experiment [1] (0.1 μM test compound); 4.1 ± 0.3 x-fold in experiment [1] (1.0 μM test compound); 22.9 ± 1.8 x-fold in experiment [1] (10 μM test compound); 33.5 ± 3.3 x-fold in experiment [1] (100 μM test compound). Further, the “Stimulation (x-fold) of recombinant sGC, haem-containing sGC, +0.01 μM DEA/NO” value is 9.6 ± 0.8 x-fold in experiment [2] (0.01 μM test compound); 8.8 ± 1.2 x-fold in experiment [2] (0.1 μM test compound); 9.8 ± 1.2 x-fold in experiment [2] (1.0 μM test compound); 10.7 ± 1.0 x-fold in experiment [2] (10 μM test compound); 11.4 ± 1.2 x-fold in experiment [2] (100 μM test compound). Besides, the “Stimulation (x-fold) of recombinant sGC, haem-containing sGC, +10 μM ODQ” value in experiment [2] (0.01 μM test compound) turned out to be 4.9 ± 1.2 x-fold; in experiment [2] (0.1 μM test compound), 5.3 ± 1.3 x-fold; in experiment [2] (1.0 μM test compound), 4.5 ± 1.1 x-fold; in experiment [2] (10 μM test compound), 8.3 ± 1.4 x-fold; in experiment [2] (100 μM test compound), 15.0 ± 2.0 x-fold. In addition, the “Stimulation (x-fold) of recombinant sGC, haem-containing sGC, basal” value in experiment [2] (0.01 μM test compound) worked out at 0.7 ± 0.2 x-fold; in experiment [2] (0.1 μM test compound), 0.6 ± 0.1 x-fold; in experiment [2] (1.0 μM test compound), 0.6 ± 0.1 x-fold; in experiment [2] (10 μM test compound), 1.8 ± 0.3 x-fold; in experiment [2] (100 μM test compound), 4.9 ± 0.7 x-fold. In experiment [2], the “Effect of combination with the NO donor DEA/NO on sGC stimulation” value is reported as “no synergistic effect”. The minimal effective concentration in experiment [3] is 0.0048 µM. Moreover, in experiment [4], the half-maximal effective concentration (EC50) came to 130 nM. Also, the “Activating action at the sGC enzyme in vitro, MEC” value in experiment [4] amounted to 7 nM.

In general, EC50 refers to the concentration needed to bring the measured effect to its halfway point.

For the origin of these results see patent publication US9018414B2, “Substituted 3-phenylpropionic acids and the use thereof” (Bayer Intellectual Property GmbH, priority 2009, dated 2015).
